From ChEMBL document CHEMBL4630907 (2021)
Active and inactive are the calls of the source. The rule behind the calls is not given here.

Legend:
[1] = target: T1, 5-hydroxytryptamine receptor 3A (Homo sapiens, UniProt P46098); assay: GPCRScan assay: inhibition of 5-HT3; parameters: radioligand conc. used [nm] 1.0 – 2.0, parental cells HEKT
T1 sequence (P46098 whole entry): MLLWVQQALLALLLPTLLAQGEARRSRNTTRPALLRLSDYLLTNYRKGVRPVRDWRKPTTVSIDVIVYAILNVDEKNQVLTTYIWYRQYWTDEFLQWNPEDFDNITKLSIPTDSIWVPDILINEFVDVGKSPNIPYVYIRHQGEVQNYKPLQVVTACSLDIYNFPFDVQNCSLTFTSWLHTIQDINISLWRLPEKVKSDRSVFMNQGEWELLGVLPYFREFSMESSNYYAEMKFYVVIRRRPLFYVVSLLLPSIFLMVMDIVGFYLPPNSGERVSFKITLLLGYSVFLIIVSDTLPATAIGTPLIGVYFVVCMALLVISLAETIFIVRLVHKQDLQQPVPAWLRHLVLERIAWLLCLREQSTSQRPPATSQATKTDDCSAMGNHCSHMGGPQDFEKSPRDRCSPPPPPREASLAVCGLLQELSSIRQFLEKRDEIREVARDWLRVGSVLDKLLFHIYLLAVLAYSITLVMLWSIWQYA

D(4) dopamine receptor = D(4) dopamine receptor (Homo sapiens, UniProt P21917); assay: GPCRScan assay: inhibition of D4; parameters: radioligand conc. used [nm] 0.6 – 1.7, parental cells Stable HEK
[2] = target: GABA-A receptor; anion channel; assay: GPCRScan assay: inhibition of GABAA/BZP; format: protein-complex assay, Rattus norvegicus; parameters: radioligand conc. used [nm] 0.6 – 4.0, parental cells brain tissue
[3] = target: T2, Bromodomain-containing protein 2 (Homo sapiens, UniProt P25440); assay: TR-FRET assay (BRD2 BD2)
Target sequence in this assay (P25440 whole entry): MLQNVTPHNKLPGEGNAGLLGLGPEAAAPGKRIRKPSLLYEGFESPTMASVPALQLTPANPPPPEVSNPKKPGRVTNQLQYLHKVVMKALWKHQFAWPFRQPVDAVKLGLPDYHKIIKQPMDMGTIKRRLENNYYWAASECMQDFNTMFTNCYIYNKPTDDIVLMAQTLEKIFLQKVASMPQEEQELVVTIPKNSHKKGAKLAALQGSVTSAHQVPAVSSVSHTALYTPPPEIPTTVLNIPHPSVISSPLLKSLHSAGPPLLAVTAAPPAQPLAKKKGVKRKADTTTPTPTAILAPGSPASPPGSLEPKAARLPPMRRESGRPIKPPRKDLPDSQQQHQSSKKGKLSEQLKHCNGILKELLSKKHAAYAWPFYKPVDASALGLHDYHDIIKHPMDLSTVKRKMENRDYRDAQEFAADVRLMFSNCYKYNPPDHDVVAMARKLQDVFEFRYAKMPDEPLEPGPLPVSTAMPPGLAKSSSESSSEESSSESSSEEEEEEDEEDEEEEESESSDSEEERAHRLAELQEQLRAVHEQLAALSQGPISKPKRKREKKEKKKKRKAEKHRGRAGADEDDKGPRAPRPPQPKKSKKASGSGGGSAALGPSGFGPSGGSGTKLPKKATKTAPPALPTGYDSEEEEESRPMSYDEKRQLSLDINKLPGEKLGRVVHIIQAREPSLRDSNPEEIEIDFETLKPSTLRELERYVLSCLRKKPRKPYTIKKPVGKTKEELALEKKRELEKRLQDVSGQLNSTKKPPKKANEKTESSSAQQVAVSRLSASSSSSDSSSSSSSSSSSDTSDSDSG

[4] = target: T3, Bromodomain-containing protein 3 (Homo sapiens, UniProt Q15059); assay: TR-FRET assay (BRD3 BD1)
Target sequence in this assay (Q15059 whole entry): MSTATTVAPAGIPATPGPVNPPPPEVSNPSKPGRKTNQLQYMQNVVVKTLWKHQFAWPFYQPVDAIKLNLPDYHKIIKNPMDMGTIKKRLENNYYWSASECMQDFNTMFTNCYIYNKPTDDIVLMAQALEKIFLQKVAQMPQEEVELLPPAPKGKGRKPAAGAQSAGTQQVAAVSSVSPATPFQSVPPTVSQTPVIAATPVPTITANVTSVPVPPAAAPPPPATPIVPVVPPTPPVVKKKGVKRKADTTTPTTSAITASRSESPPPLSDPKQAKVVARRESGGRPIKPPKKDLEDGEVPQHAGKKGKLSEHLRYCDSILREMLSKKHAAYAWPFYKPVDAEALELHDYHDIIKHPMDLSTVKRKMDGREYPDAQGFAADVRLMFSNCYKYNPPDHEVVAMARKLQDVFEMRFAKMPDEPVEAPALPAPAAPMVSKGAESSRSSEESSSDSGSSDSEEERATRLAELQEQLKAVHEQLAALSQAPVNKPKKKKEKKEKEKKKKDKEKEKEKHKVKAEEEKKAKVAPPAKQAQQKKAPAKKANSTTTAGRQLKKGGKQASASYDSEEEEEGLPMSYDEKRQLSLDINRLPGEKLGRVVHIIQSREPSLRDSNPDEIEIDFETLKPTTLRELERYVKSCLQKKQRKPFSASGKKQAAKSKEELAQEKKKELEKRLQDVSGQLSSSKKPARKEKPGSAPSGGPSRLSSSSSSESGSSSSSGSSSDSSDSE

[5] = target: T2, Bromodomain-containing protein 2; assay: BET mutant TR-FRET assay (BRD2 BD1)
Target sequence in this assay (P25440 whole entry, looked up, change not shown): as the sequence (P25440 whole entry) above

[6] = target: T2, Bromodomain-containing protein 2; assay: BET mutant TR-FRET assay (BRD2 BD2)
Target sequence in this assay (P25440 whole entry, looked up, change not shown): as the sequence (P25440 whole entry) above

[7] = target: T3, Bromodomain-containing protein 3; assay: BET mutant TR-FRETassay (BRD3 BD1)
Target sequence in this assay (Q15059 2-726 limits assumed, change not shown): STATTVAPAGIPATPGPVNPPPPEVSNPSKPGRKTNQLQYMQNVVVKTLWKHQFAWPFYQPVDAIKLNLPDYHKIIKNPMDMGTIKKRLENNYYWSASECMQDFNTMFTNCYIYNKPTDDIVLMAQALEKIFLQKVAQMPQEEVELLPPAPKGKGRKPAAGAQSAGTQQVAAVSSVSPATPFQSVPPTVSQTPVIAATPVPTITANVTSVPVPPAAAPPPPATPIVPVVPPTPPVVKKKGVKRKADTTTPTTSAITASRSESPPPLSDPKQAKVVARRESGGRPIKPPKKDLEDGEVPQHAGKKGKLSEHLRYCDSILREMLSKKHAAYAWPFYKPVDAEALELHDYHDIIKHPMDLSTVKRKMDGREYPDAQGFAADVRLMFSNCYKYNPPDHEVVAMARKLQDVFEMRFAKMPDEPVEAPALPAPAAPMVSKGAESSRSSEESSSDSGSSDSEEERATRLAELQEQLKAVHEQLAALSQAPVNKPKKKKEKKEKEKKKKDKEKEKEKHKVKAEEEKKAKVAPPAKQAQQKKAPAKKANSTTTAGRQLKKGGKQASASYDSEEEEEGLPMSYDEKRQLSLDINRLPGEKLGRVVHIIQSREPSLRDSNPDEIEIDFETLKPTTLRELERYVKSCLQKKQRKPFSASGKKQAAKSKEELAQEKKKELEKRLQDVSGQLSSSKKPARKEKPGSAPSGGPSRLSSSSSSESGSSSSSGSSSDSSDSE

[8] = target: T3, Bromodomain-containing protein 3; assay: BET mutant TR-FRET assay (BRD3 BD2)
Target sequence in this assay (Q15059 2-726 limits assumed, change not shown): as above

[9] = target: T2, Bromodomain-containing protein 2; assay: BRD2 Bromoscan (DiscoverX)
Target sequence in this assay (P25440 whole entry): as the sequence (P25440 whole entry) above

[10] = target: T3, Bromodomain-containing protein 3; assay: BRD3 Bromoscan (DiscoverX)
Target sequence in this assay (Q15059 whole entry): as the sequence (Q15059 whole entry) above

[11] = target: Bromodomain-containing protein 1 (Homo sapiens, UniProt O95696); assay: BRD1 DiscoverX BROMOscan
[12] = target: T2, Bromodomain-containing protein 2; assay: BRD2(2) DiscoverX BROMOscan
Target sequence in this assay (P25440 whole entry): as the sequence (P25440 whole entry) above

[13] = target: Bromodomain-containing protein 7 (Homo sapiens, UniProt Q9NPI1); assay: BRD7 DiscoverX BROMOscan
Peregrin = Peregrin (Homo sapiens, UniProt P55201); assay: BRPF1 DiscoverX BROMOscan
[14] = target: Bromodomain and PHD finger-containing protein 3 (Homo sapiens, UniProt Q9ULD4); assay: BRPF3 DiscoverX BROMOscan
[15] = target: Chromatin remodeling regulator CECR2 (Homo sapiens, UniProt Q9BXF3); assay: CECR2 DiscoverX BROMOscan
[16] = target: Histone acetyltransferase p300 (Homo sapiens, UniProt Q09472); assay: EP300 DiscoverX BROMOscan
[17] = target: Histone acetyltransferase KAT2A (Homo sapiens, UniProt Q92830); assay: GCN5L2 DiscoverX BROMOscan
[18] = target: SWI/SNF-related matrix-associated actin-dependent regulator of chromatin subfamily A member 2 (Homo sapiens, UniProt P51531); assay: SMARCA2 DiscoverX BROMOscan
[19] = target: Transcription initiation factor TFIID subunit 1-like (Homo sapiens, UniProt Q8IZX4); assay: TAF1L(2) DiscoverX BROMOscan
[20] = target: E3 ubiquitin-protein ligase TRIM33 (Homo sapiens, UniProt Q9UPN9); assay: TRIM33(PHD,Bromo.) DiscoverX BROMOscan
[21] = target: 3',5'-cyclic-AMP phosphodiesterase 4B (Homo sapiens, UniProt Q07343); assay: (§1) Cross screening panel
[22] = as §1
[23] = target: 5-hydroxytryptamine receptor 1D (Homo sapiens) (UniProt P28221); conditions: Compound concentration 10.0 uM
[24] = target: 5-hydroxytryptamine receptor 2A (Homo sapiens, UniProt P28223); conditions: Compound concentration 10.0 uM
[25] = target: 5-hydroxytryptamine receptor 3A (Homo sapiens) (UniProt P46098); conditions: Compound concentration 10.0 uM
[26] = target: 5-hydroxytryptamine receptor 6 (Homo sapiens) (UniProt P50406); conditions: Compound concentration 10.0 uM
[27] = target: 5-hydroxytryptamine receptor 7 (Homo sapiens) (UniProt P34969); conditions: Compound concentration 10.0 uM
D(1A) dopamine receptor = D(1A) dopamine receptor (Homo sapiens, UniProt P21728); conditions: Compound concentration 10.0 uM
D(2) dopamine receptor = D(2) dopamine receptor (Homo sapiens, UniProt P14416); conditions: Compound concentration 10.0 uM
[28] = target: D(4) dopamine receptor (Homo sapiens) (UniProt P21917); conditions: Compound concentration 10.0 uM
[29] = target: Sodium-dependent serotonin transporter (Homo sapiens, UniProt P31645); conditions: Compound concentration 10.0 uM
Mu-type opioid receptor = Mu-type opioid receptor (Homo sapiens, UniProt P35372); conditions: Compound concentration 10.0 uM
[30] = target: Kappa-type opioid receptor (Homo sapiens, UniProt P41145); conditions: Compound concentration 10.0 uM
[31] = target: Histamine H2 receptor (Homo sapiens) (UniProt P25021); conditions: Compound concentration 10.0 uM
[32] = target: Alpha-1B adrenergic receptor (Homo sapiens) (UniProt P35368); conditions: Compound concentration 10.0 uM
[33] = target: Alpha-2A adrenergic receptor (Homo sapiens) (UniProt P08913); conditions: Compound concentration 10.0 uM
[34] = target: Muscarinic acetylcholine receptor M2 (Homo sapiens) (UniProt P08172); conditions: Compound concentration 10.0 uM
[35] = target: Muscarinic acetylcholine receptor M5 (Homo sapiens) (UniProt P08912); conditions: Compound concentration 10.0 uM
[36] = target: GABA-A receptor; anion channel (Rattus norvegicus) (UniProt O09028+P15431+P18506+P18508+P19969+P20236+P23574+P23576+P28471+P28473+P30191+P62813+P63079+P63138+Q91ZM7+Q9ES14); conditions: Compound concentration 10.0 uM
Rattus norvegicus = organism: Rattus norvegicus; conditions: Compound concentration 10.0 uM
[37] = target: Alpha-1D adrenergic receptor (Homo sapiens) (UniProt P25100); conditions: Compound concentration 10.0 uM
[38] = target: Sigma intracellular receptor 2 (Homo sapiens) (UniProt Q5BJF2); conditions: Compound concentration 10.0 uM
Sequence of Sigma intracellular receptor 2 (Homo sapiens) (Q5BJF2 whole entry): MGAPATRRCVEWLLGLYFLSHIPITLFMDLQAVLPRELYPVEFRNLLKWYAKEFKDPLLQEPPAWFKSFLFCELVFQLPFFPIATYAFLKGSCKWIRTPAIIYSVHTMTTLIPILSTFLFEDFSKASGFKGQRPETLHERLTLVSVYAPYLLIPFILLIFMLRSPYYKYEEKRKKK

Sequence of D(4) dopamine receptor (P21917 whole entry): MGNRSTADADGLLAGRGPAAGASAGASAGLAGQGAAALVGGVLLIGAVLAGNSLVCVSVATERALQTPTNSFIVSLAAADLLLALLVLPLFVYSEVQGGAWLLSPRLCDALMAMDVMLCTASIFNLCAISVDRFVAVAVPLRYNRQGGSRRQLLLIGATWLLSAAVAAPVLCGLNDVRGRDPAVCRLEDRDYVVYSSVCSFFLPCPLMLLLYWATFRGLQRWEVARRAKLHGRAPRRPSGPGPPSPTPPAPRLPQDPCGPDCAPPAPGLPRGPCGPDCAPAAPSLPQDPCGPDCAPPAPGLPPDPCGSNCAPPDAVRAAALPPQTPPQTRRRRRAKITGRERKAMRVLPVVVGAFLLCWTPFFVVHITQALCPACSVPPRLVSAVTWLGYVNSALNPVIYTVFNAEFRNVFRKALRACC
Sequence of Sodium-dependent serotonin transporter (P31645 whole entry, looked up): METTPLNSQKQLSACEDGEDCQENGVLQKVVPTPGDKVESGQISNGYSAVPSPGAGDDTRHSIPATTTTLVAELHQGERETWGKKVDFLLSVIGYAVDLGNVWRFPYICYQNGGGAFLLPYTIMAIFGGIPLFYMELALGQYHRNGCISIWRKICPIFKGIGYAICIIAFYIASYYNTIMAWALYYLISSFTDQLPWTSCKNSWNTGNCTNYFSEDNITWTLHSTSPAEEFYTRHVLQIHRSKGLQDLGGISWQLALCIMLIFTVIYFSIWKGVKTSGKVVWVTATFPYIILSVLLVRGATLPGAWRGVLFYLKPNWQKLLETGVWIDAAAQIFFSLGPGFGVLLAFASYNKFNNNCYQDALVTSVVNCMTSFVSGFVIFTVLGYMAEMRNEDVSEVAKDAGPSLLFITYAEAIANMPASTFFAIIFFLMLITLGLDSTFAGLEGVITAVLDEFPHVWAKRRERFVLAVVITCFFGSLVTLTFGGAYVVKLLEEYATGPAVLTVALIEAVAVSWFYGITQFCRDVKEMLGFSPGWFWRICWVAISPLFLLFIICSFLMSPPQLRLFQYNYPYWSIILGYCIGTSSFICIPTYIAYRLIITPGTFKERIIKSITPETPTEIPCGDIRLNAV
Sequence of D(4) dopamine receptor (Homo sapiens) (P21917 whole entry): as the sequence (P21917 whole entry) above
Sequence of Alpha-2A adrenergic receptor (Homo sapiens) (P08913 whole entry): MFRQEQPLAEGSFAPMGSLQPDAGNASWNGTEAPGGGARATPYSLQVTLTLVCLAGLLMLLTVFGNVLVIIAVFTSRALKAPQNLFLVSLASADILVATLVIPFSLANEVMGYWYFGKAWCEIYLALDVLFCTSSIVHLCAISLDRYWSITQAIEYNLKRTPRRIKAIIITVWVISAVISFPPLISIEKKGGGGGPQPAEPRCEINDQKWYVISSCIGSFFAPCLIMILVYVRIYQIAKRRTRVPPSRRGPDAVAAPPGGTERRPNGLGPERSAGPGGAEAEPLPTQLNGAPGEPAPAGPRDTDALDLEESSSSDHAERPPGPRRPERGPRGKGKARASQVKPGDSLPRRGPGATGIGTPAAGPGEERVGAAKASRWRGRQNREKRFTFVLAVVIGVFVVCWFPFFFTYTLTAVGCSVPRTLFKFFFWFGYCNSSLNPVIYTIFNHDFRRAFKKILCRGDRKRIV

COCc1nc2cnc3cc(-c4c(C)noc4C)c(OC[C@H]4CCNC4)cc3c2n1[C@H](C)c1ccccc1 [GSK778]
Ki [1]: 4.46 µM
Ki (D(4) dopamine receptor; read-out: Ki): 0.857 µM
Ki (D(4) dopamine receptor; read-out: pKi (converted)): 0.813 µM
Ki [2]: 1.97 µM
pKi [2]: 5.75
IC50 [3]: 3.95 µM (not active)
IC50 [4]: 0.041 µM (active)
pIC50 [5]: 7.1
pIC50 [6]: 5.5
pIC50 [7]: 7.4
pIC50 [8]: 6
Kd [9]: 0.013 µM (active)
Kd [10]: 0.005 µM (active)
Kd [11]: 30 µM
Kd [12]: 0.84 µM
Kd [13]: 30 µM
Kd (Peregrin): 15 µM
Kd [14]: 30 µM
Kd [15]: 30 µM
Kd [16]: 5.7 µM
Kd [17]: 30 µM
Kd [18]: 30 µM
Kd [19]: 30 µM
Kd [20]: 30 µM
IC50 [21]: 39.8 µM
pMEC [22]: < 4
inhibition [23]: 14.8%
inhibition [24]: -5.06%
inhibition [25]: 69.8%
inhibition [26]: -9.08%
inhibition [27]: -5.39%
inhibition (D(1A) dopamine receptor): 2.89%
inhibition (D(2) dopamine receptor): 27.7%
inhibition [28]: 79.5%
inhibition [29]: 10.7%
inhibition (Mu-type opioid receptor): 16.9%
inhibition [30]: 15.5%
inhibition [31]: 12.3%
inhibition [32]: 4.2%
inhibition [33]: 9.95%
inhibition [34]: 4.05%
inhibition [35]: 24.6%
inhibition [36]: 91.6%
inhibition (Rattus norvegicus): 7.75%
inhibition [37]: 17%
inhibition [38]: 23%
